pIC50: −log10 of the molar value. Like-named read-outs stand apart in the source and are kept apart here.
Assays:
[1] = tested on: K562 human myelogeneous leukaemia cell line; experiment: Cytotoxicity/growth inhibition assay (MTT), K562; type: cell-based
In short: (§1)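 Growth inhibition of P388 murine and K562 human leukaemia cells measured by MTT assay.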

HUVEC = experiment: Growth inhibition studies using HUVEC; type: cell-based, human; conditions: Homo sapiens, HUVEC
Protocol: (§2) The following assays (1–5) were carried out as described in our paper (Woods, et al, British Journal of Cancer, 71, 705–711 (1995)). In addition to the cell lines described in this paper, other established human cell lines (K562, HUVEC, H460, BE, H529, and HT29) were used in the cytotoxicity/growth inhibition assay. • (1) Inhibition of tubulin assembly. The figure quoted is the concentration required to reduce assembly of tubulin by 50%. Tubulin assembly is monitored by light scatter/absorption at 350 nm.
(§3) (2) Competition for the colchicine binding site on tubulin. The figure quoted represents the % of ^3H-colchicine bound following co-incubation of test compound and ^3H-cochicine with isolated tubulin. Where ester pro-drugs were used the experiments were carried out in the presence and absence of porcine liver esterase. • (3) Cytotoxicity/growth inhibition assay. This was carried out by the MTT assay. • (4) Permeability (shape-change) assay in endothelial cells. This was carried out using a method based on that of Watts et al. (Anticancer Res., 17, 71–75, (1997)). This involved the diffusion of a fluorescently labelled dextran through a barrier of endothelial cells (HUVEC) grown to confluence on a porous membrane. The effect of agents to alter the shape of these cells results in an increase in the permeability of the cells to the dye. The figure represents the increase in permeability over control cultures when drug is added (30 minutes, 1 mM.). • (5) Experiments to study the anti-vascular effects of these agents were carried out as described previously by our group. (Zhao et al, European Journal of Nuclear Medicine, 26, 231–238 (1999)). The anti-vascular effects of the agents were monitored by either positron emission tomography (PET) or by histologogical examination following treatment of mice bearing T50:80 murine breast tumours, or H460 human lung tumours. • (6) Anti-tumour efficacy of agents was determined in xenografts of H460 human lung cancer. Animals (n=5) were trated either with 5 daily injections and tumour size measured with time following treatment. • (7) The pharmacokinetic profile of agents was determined in mice following injection with drug. Blood was taken at various times following treatment and analysed by HPLC with UV detection. The HPLC conditions were isocratic using a 5 micron C18 BDS column (150×4.6) ad eluting with 75% MeOH in water with a detection wavelength of 290 nm. […] (AND(P)H:quinone oxidoreductace, EC 1.6.99.2). DT-diaphorase is an enzyme over-expressed in a number of human tumours. […] This two-electron reducing enzyme can be used to selectively activate prodrugs within cancers which over-express the enzyme.

tubulin [2] = experiment: MA IC50 (Tables 12-26, abbreviation not defined); type: biochemical
tubulin [3] = experiment: CD IC50 (Tables 12-26, abbreviation not defined); type: binding
K562 = K562 cell cycle analysis; type: cell-based, human; conditions: K562; for % of cells in G0–G1 / % of cells in G2-M / % of cells in S phase: of cells with DNA content = 2 n or >2 n
A2780 = experiment: Cytotoxicity/growth inhibition assay (MTT), A2780; type: cell-based; conditions: for IC50: read-out: IC50 (nM) A2780; for pIC50: read-out: A2780 IC50
Protocol: as §2, §3

A2780/ADR = experiment: Cytotoxicity/growth inhibition assay (MTT), A2780/ADR; type: cell-based
Protocol: as §2, §3

tubulin [4] = tested on: T1, tubulin; experiment: Inhibition of tubulin assembly; type: biochemical; conditions: concentration required to reduce assembly of tubulin by 50%
T1 construct: other: concentration required to reduce assembly of tubulin by 50%
Protocol: as §2

[5] = tested on: colchicine binding site on tubulin; experiment: Competition for the colchicine binding site on tubulin; conditions: % of 3H-colchicine bound; for Colchicine displacement protein:drug 1:10 (with esterase): with porcine liver esterase
Protocol: as §3, with “This was carried out using a method based on that of Watts et al. (Anticancer Res., 17, 71–75, (1997)).” left out, “(Zhao et al, European Journal of Nuclear Medicine, 26, 231–238 (1999)).” left out, “detection.” for “detection. The HPLC conditions were isocratic using a 5 micron C18 BDS column (150×4.6) ad eluting with 75% MeOH in water with a detection wavelength of 290 nm.”

[6] = tested on: P388 murine leukaemia cell line; experiment: Cytotoxicity/growth inhibition assay (MTT), P388; type: cell-based; conditions: Mus musculus, P388, MTT
In short: as §1

[7] = tested on: colchicine binding site on tubulin; experiment: Competition for the colchicine binding site on tubulin
[8] = Homo sapiens, K562, MTT, read-out: K562 IC50
[9] = Homo sapiens, K562, Table 22, read-out: MTT (K582) IC50

| SMILES | pIC50 [1, 8] | pIC50 (HUVEC) | pIC50 (tubulin [2]) | pIC50 (tubulin [3]) | % of cells with DNA content <2 n (K562) [%] | % of cells in G0–G1 (K562) [%] | % of cells in G2-M (K562) [%] | % of cells in S phase (K562) [%] | IC50 (A2780; Homo sapiens, A2780) [nM] | IC50 (A2780/ADR; A2780 ADR) [nM] | IC50 (tubulin [4]) [µM] | Colchicine displacement protein:drug 1:10 (without esterase) [5] [%] | Colchicine displacement protein:drug 1:10 (with esterase) [5] [%] | further results |
| --- | --- | --- | --- | --- | --- | --- | --- | --- | --- | --- | --- | --- | --- | --- |
| CCOc1cc(C=Cc2ccc(OC)c(O)c2)cc(OCC)c1OCC [Compound 253] | 7.74 | 7.30 | 6.30 | 4.81 | 4 | 3 | 92 | 6 |  |  |  |  |  |  |
| CCC(=Cc1ccc(OC)c(O)c1)c1cc(OC)c(OC)c(OC)c1 [Compound 219] |  | 6.66 | 6.89 | < 4.60 | 24 | 7 | 74 | 19 |  |  |  |  |  | pIC50 [1, 9]: 6.92 |
| COc1ccc(C=Cc2cc(OC)c(OC)c(OC)c2)cc1OC(=O)C(CC(C)C)NC(=O)OC(C)(C)C (centres unmarked) [Compound 38] |  |  |  |  |  |  |  |  | 14 | 27 | 7.8 | 72 |  |  |
| COc1cc(C=Cc2ccc(N(C)C)cc2)cc(OC)c1OC [Compound 97-65] |  | 6.46 |  |  |  |  |  |  |  |  | 100 |  |  | pIC50 (A2780; Homo sapiens, A2780): 7.02; pIC50 [6]: 6.74 |
| COc1ccc(/C=C\c2cc(OC)c(OC)c(OC)c2)cc1OC(=O)C(Cc1c[nH]cn1)NC(=O)OC(C)(C)C (centres unmarked) [Compound 40] |  |  |  |  |  |  |  |  |  |  | 7 | 2 | 4 | IC50 (A2780): 2.2 nM; IC50 (A2780/ADR): 4.3 nM |
| COc1ccc(/C=C\c2cc(C)c(C)c(C)c2)cc1 [Compound 117] | 6.51 | < 6.00 | 6.19 | < 4.60 | 15 | 3 | 87 | 10 |  |  |  |  |  |  |
| COc1ccc(C=Cc2cc(OC)c(OC)c(OC)c2)cc1OC(=O)C(CCSC)NC(=O)OC(C)(C)C (centres unmarked) [Compound 37] |  |  |  |  |  |  |  |  | 6.7 | 9.1 | 6 | 88 | 2 |  |
| COc1ccc(/C=C\c2cc(OC)c(OC)c(OC)c2)cc1OC(=O)[C@@H](Cc1c[nH]c2ccccc12)NC(=O)OC(C)(C)C [Compound 43] |  |  |  |  |  |  |  |  | 3.3 | 3.8 | 3 |  | 2 |  |
| COc1ccc(C=Cc2cc(OC)c(OC)c(OC)c2)c(F)c1F [Compound 00-105] | 7.70 |  |  |  |  |  |  |  |  |  | > 100 |  |  | Colchicine % Inhibition [7]: 3.6% |
| COc1cc(C=Cc2cc(F)c(OC)c(F)c2)cc(OC)c1OC [Compound 00-82] | 7.30 |  |  |  |  |  |  |  |  |  | 7.2 |  |  | pIC50 (A2780; Homo sapiens, A2780): 7.22; Colchicine % Inhibition [7]: 39.5% |
| COc1ccc(C=Cc2cc(OC)c(OC)c(OC)c2)cc1OC(=O)C(Cc1c[nH]c2ccccc12)NC(=O)OC(C)(C)C (centres unmarked) [Compound 36] |  |  |  |  |  |  |  |  | 1.7 | 2 | 4 |  |  |  |
| COc1ccc(C=C(C)c2cc(OC)c(OC)c(OC)c2)cc1O [Compound 210] | 7.40 | 7.05 | 6.89 | 5.22 | 23 | 5 | 73 | 22 |  |  |  |  |  | pIC50 [1, 9]: 7.40 |
| COc1ccc(/C=C\c2cc(C)c(C)c(C)c2)cc1O [Compound 133] |  | 7.30 | 6.92 | 5.00 | 6 | 3 | 91 | 6 |  |  |  |  |  | pIC50 ([1]; MTT, read-out: K562 IC50): 7.70 |
| COc1ccc(C=Cc2cc(OC)c(OC)c(OC)c2)cc1OC(=O)C(Cc1ccccc1)NC(=O)OC(C)(C)C (centres unmarked) [Compound 33, Boc-Phenylalanine Combretastatin A-4] |  |  |  |  |  |  |  |  | 2.8 | 4 | 3.6 | 92 | 2 |  |
| COc1ccc(/C=C\c2cc(OC)c(OC)c(OC)c2)cc1OC(=O)C(Cc1ccc(O)cc1)NC(=O)OC(C)(C)C (centres unmarked) [Compound 44] |  |  |  |  |  |  |  |  |  |  |  |  |  | IC50 (A2780): 4.5 nM; IC50 (A2780/ADR): 6.4 nM |
| COc1ccc(C=Cc2cc(OC)c(OC)c(OC)c2)cc1OC(=O)C(C)NC(=O)OC(C)(C)C (centres unmarked) [Compound 39] |  |  |  |  |  |  |  |  | 2.7 | 4.6 | 8 | 77 | 2 |  |
| COc1ccc(/C=C\c2cc(C)c(C)c(C)c2)cc1F [Compound 120] | 6.85 | 6.34 | 6.15 | 5.00 | 23 | 6 | 77 | 17 |  |  |  |  |  |  |
| CCOc1cc(C=Cc2ccc(OC)c(F)c2)cc(OCC)c1OCC [Compound 251] | 7.36 | 6.72 | 5.90 | < 4.60 | 24 | 7 | 75 | 18 |  |  |  |  |  |  |
| CCC(C)C(NC(=O)OC(C)(C)C)C(=O)Oc1cc(C=Cc2cc(OC)c(OC)c(OC)c2)ccc1OC (centres unmarked) [Compound 34] |  |  |  |  |  |  |  |  | > 60 | > 60 | 6.2 | 65 | 2 |  |
| COc1ccc(C=Cc2cc(OC)c(OC)c(OC)c2)cc1OC(=O)C1CCCN1C(=O)OC(C)(C)C (centres unmarked) [Compound 41] |  |  |  |  |  |  |  |  | 29 | 39 | 9 | 78 | 2 |  |
| COc1ccc(/C=C\c2cc(OC)c(OC)c(OC)c2)cc1OC(=O)CNC(=O)OC(C)(C)C [Compound 35] |  |  |  |  |  |  |  |  | 4.3 | 5 | 7.5 | 65 | 4 |  |
| COc1ccc(/C=C\c2cc(OC)c(OC)c(OC)c2)cc1OC(=O)[C@@H](CCSC)NC(=O)OC(C)(C)C [Compound 42] |  |  |  |  |  |  |  |  | 2.9 | 2.9 | 3.5 |  | 2 |  |
| COc1ccc(/C=C\c2cc(OC)c(OC)c(OC)c2)cc1F [Compound 90] | 8.00 | 8.40 | 7.07 | 5.55 | 16 | 5 | 79 | 16 |  |  |  |  |  |  |

— patent US7220784B2, “Substituted stilbenes and their reactions” (priority 2000, dated 2007)
